We go through 20 molecules from patent publication US12528826B2, “[1,4]oxazepino[2,3-c]quinolinone derivatives as BCL6 inhibitors” (Cancer Research Technology Limited, priority 2019, dated 2026).

The assay has as its target T1, Trx-6×His-BCL6 (human BCL6 BTB domain covering amino-acid sequence 5-129) (Homo sapiens, UniProt P41182).
T1 construct: made in house
As to the kind of experiment: HTRF assay (BCL6 / BCOR peptide). It counts as binding. Particulars: 1 nM Trx-6×His-BCL6, 300 nM BCOR-AF633 peptide, 2 hours incubation at room temperature; for IC50: read-out: HTRF avg pIC50 (converted). The procedure:
After 2 hours incubation at room temperature the plate was read on a Pherastar FSX (BMG Labtech) plate reader equipped with 337 nm laser excitation filter, a first emission filter at 620 nm and a second emission filter at 665 nm. The % inhibition at each concentration was calculated by normalising FRET ratio to the appropriate high (DMSO with all reagents) and low (DMSO without BCL6) controls.

Turning to `COC[C@@H]1CCCN1c1ncc(Cl)c(Nc2ccc3c(c2)c2c(c(=O)n3C)OCC(F)(F)[C@H](C3CC3)N2)n1` [Example 12x45a, (S)-10-((5-chloro-2-((S)-2-(methoxymethyl)pyrrolidin-1-yl)pyrimidin-4-yl)amino)-2-cyclopropyl-3,3-difluoro-7-methyl-1,2,3,4-tetrahydro-[1,4]oxazepino[2,3-c]quinolin-6(7H)-one], the IC50 is 11.2 nM.
As for `COC[C@H]1CCCN1c1ncc(Cl)c(Nc2ccc3c(c2)c2c(c(=O)n3C)OCC(F)(F)[C@H](C3CC3)N2)n1` [Example 12x45b, (S)-10-((5-chloro-2-((R)-2-(methoxymethyl)pyrrolidin-1-yl)pyrimidin-4-yl)amino)-2-cyclopropyl-3,3-difluoro-7-methyl-1,2,3,4-tetrahydro-[1,4]oxazepino[2,3-c]quinolin-6(7H)-one], the IC50 was 4.79 nM.
The same measure, in the same setting: then `Cn1c(=O)c2c(c3cc(Nc4nc(N5CC(F)(F)C[C@H]5CO)ncc4Cl)ccc31)N[C@@H](C1CC1)C(F)(F)CO2` [Example 12x47, (S)-10-((5-chloro-2-((S)-4,4-difluoro-2-(hydroxymethyl)pyrrolidin-1-yl)pyrimidin-4-yl)amino)-2-cyclopropyl-3,3-difluoro-7-methyl-1,2,3,4-tetrahydro-[1,4]oxazepino[2,3-c]quinolin-6(7H)-one], with 8.32 nM.
`Cn1c(=O)c2c(c3cc(Nc4nc(N5C[C@@H](F)C[C@H]5CO)ncc4Cl)ccc31)N[C@@H](C1CC1)C(F)(F)CO2` [Example 12x48a, (S)-10-((5-chloro-2-((2S,4S)-4-fluoro-2-(hydroxymethyl)pyrrolidin-1-yl)pyrimidin-4-yl)amino)-2-cyclopropyl-3,3-difluoro-7-methyl-1,2,3,4-tetrahydro-[1,4]oxazepino[2,3-c]quinolin-6(7H)-one]: the IC50 was 4.27 nM.
In the case of `Cn1c(=O)c2c(c3cc(Nc4nc(N5C[C@H](F)C[C@H]5CO)ncc4Cl)ccc31)N[C@@H](C1CC1)C(F)(F)CO2` [Example 12x48b, (S)-10-((5-chloro-2-((2S,4R)-4-fluoro-2-(hydroxymethyl)pyrrolidin-1-yl)pyrimidin-4-yl)amino)-2-cyclopropyl-3,3-difluoro-7-methyl-1,2,3,4-tetrahydro-[1,4]oxazepino[2,3-c]quinolin-6(7H)-one], the IC50 was 18.6 nM.
The same measure, in the same setting: then `CC1CCN(c2ncc(Cl)c(Nc3ccc4c(c3)c3c(c(=O)n4C)OCC(F)(F)[C@H](C4CC4)N3)n2)C1CO` (stereo partly drawn) [Example 12x49, (2S)-10-((5-chloro-2-(2-(hydroxymethyl)-3-methylpyrrolidin-1-yl)pyrimidin-4-yl)amino)-2-cyclopropyl-3,3-difluoro-7-methyl-1,2,3,4-tetrahydro-[1,4]oxazepino[2,3-c]quinolin-6(7H)-one], with 6.31 nM.
The same measure, in the same setting: the same measure for `C[C@H]1C[C@@H](O)CN(c2cc(Nc3ccc4c(c3)c3c(c(=O)n4C)OCC(F)(F)[C@H](C4CC4)N3)c(Cl)cn2)C1` [Example 13a, (S)-10-((5-chloro-2-((3R,5S)-3-hydroxy-5-methylpiperidin-1-yl)pyridin-4-yl)amino)-2-cyclopropyl-3,3-difluoro-7-methyl-1,2,3,4-tetrahydro-[1,4]oxazepino[2,3-c]quinolin-6(7H)-one]: 6.76 nM; for `Cn1c(=O)c2c(c3cc(Nc4cc(N5CCC(F)(F)CC5)ncc4Cl)ccc31)N[C@@H](C1CC1)C(F)(F)CO2` [Example 13b]: 30.9 nM; for `CN(C)c1cc(Nc2ccc3c(c2)c2c(c(=O)n3C)OCC(F)(F)[C@H](C3CC3)N2)c(Cl)cn1` [Example 13c12, (S)-2-cyclopropyl-10-((2-(dimethylamino)-5-chloropyridin-4-yl)amino)-3,3-difluoro-7-methyl-1,2,3,4-tetrahydro-[1,4]oxazepino[2,3-c]quinolin-6(7H)-one]: 19.5 nM.
On the same count and under the same terms, the same measure for `Cn1c(=O)c2c(c3cc(Nc4cc(N5CCC(F)(F)CC5)ncc4F)ccc31)N[C@@H](C1CC1)C(F)(F)CO2` [Example 13f04, (S)-2-cyclopropyl-10-((2-(4,4-difluoropiperidin-1-yl)-5-fluoropyridin-4-yl)amino)-3,3-difluoro-7-methyl-1,2,3,4-tetrahydro-[1,4]oxazepino[2,3-c]quinolin-6(7H)-one]: 58.9 nM.
Regarding `C[C@H]1C[C@@H](O)CN(c2cc(Nc3ccc4c(c3)c3c(c(=O)n4C)OCC(F)(F)[C@H](C4CC4)N3)c(F)cn2)C1` [Example 13f05, (S)-2-cyclopropyl-3,3-difluoro-10-((5-fluoro-2-((3R,5S)-3-hydroxy-5-methylpiperidin-1-yl)pyridin-4-yl)amino)-7-methyl-1,2,3,4-tetrahydro-[1,4]oxazepino[2,3-c]quinolin-6(7H)-one], the IC50 is 6.61 nM.
The same measure, in the same setting: then `CC1CN(c2ncc(F)c(Nc3ccc4c(c3)c3c(c(=O)n4C)OCC(F)(F)[C@H](C4CC4)N3)n2)CC(C)C1(F)F` (stereo partly drawn) [Example 13p01, (2S)-2-cyclopropyl-10-((2-(4,4-difluoro-3,5-dimethylpiperidin-1-yl)-5-fluoropyrimidin-4-yl)amino)-3,3-difluoro-7-methyl-1,2,3,4-tetrahydro-[1,4]oxazepino[2,3-c]quinolin-6(7H)-one], with 85.1 nM; and `Cn1c(=O)c2c(c3cc(Nc4nc(N5CCOCC5)ncc4F)ccc31)N[C@@H](C1CC1)C(F)(F)CO2` [Example 13p06, (S)-2-cyclopropyl-3,3-difluoro-10-((5-fluoro-2-morpholinopyrimidin-4-yl)amino)-7-methyl-1,2,3,4-tetrahydro-[1,4]oxazepino[2,3-c]quinolin-6(7H)-one], with 11.7 nM.
On the same count and under the same terms, then `C[C@H]1CN(c2ncc(F)c(Nc3ccc4c(c3)c3c(c(=O)n4C)OCC(F)(F)[C@H](C4CC4)N3)n2)CCO1` [Example 13p08, (S)-2-cyclopropyl-3,3-difluoro-10-((5-fluoro-2-((S)-2-methylmorpholino)pyrimidin-4-yl)amino)-7-methyl-1,2,3,4-tetrahydro-[1,4]oxazepino[2,3-c]quinolin-6(7H)-one], with 10.5 nM.
Same read-out and setting: then `Cn1c(=O)c2c(c3cc(Nc4nc(N5C[C@H]6CC[C@@H](C5)O6)ncc4F)ccc31)N[C@@H](C1CC1)C(F)(F)CO2` [Example 13p11, (S)-10-((2-((1R,5S)-8-oxa-3-azabicyclo[3.2.1]octan-3-yl)-5-fluoropyrimidin-4-yl)amino)-2-cyclopropyl-3,3-difluoro-7-methyl-1,2,3,4-tetrahydro-[1,4]oxazepino[2,3-c]quinolin-6(7H)-one], with 7.24 nM.
Take `CN(C)c1ncc(F)c(Nc2ccc3c(c2)c2c(c(=O)n3C)OCC(F)(F)[C@H](C3CC3)N2)n1` [Example 13p12, (S)-2-cyclopropyl-10-((2-(dimethylamino)-5-fluoropyrimidin-4-yl)amino)-3,3-difluoro-7-methyl-1,2,3,4-tetrahydro-[1,4]oxazepino[2,3-c]quinolin-6(7H)-one]: the IC50 is 19.1 nM.
On to “(S)-10-((5-chloro-2-((3R,4S)-3-(hydroxymethyl)-4-methylpyrrolidin-1-yl)pyrimidin-4-yl)amino)-2-cyclopropyl-3,3-difluoro-7-methyl-1,2,3,4-tetrahydro-[1,4]oxazepino[2,3-c]quinolin-6(7H)-one:(S)-10-((5-chloro-2-((3S,4R)-3-(hydroxymethyl)-4-methylpyrrolidin-1-yl)pyrimidin-4-yl)amino)-2-cyclopropyl-3,3-difluoro-7-methyl-1,2,3,4-tetrahydro-[1,4]oxazepino[2,3-c]quinolin-6(7H)-one (1:1) [Example 11j]”, for which the “HTRF avg pIC50” value is reported as 8.22.
Same read-out and setting: then “(S)-10-((5-chloro-2-((3R,5R)-3-fluoro-5-hydroxypiperidin-1-yl)pyrimidin-4-yl)amino)-2-cyclopropyl-3,3-difluoro-7-methyl-1,2,3,4-tetrahydro-[1,4]oxazepino[2,3-c]quinolin-6(7H)-one:(S)-10-((5-chloro-2-((3S,5S)-3-fluoro-5-hydroxypiperidin-1-yl)pyrimidin-4-yl)amino)-2-cyclopropyl-3,3-difluoro-7-methyl-1,2,3,4-tetrahydro-[1,4]oxazepino[2,3-c]quinolin-6(7H)-one(1:1) [Example 11g]”, with 8.28.
Still for that read-out and setting: then “(S)-10-((5-chloro-2-((R)-3,3-difluoro-5-hydroxypiperidin-1-yl)pyrimidin-4-yl)amino)-2-cyclopropyl-3,3-difluoro-7-methyl-1,2,3,4-tetrahydro-[1,4]oxazepino[2,3-c]quinolin-6(7H)-one:(S)-10-((5-chloro-2-((S)-3,3-difluoro-5-hydroxypiperidin-1-yl)pyrimidin-4-yl)amino)-2-cyclopropyl-3,3-difluoro-7-methyl-1,2,3,4-tetrahydro-[1,4]oxazepino[2,3-c]quinolin-6(7H)-one (1:1) [Example 12e]”, with 8.32; and “(S)-10-((5-chloro-2-((R)-4,4-difluoro-3-methylpiperidin-1-yl)pyrimidin-4-yl)amino)-2-cyclopropyl-3,3-difluoro-7-methyl-1,2,3,4-tetrahydro-[1,4]oxazepino[2,3-c]quinolin-6(7H)-one or (S)-10-((5-chloro-2-((S)-4,4-difluoro-3-methylpiperidin-1-yl)pyrimidin-4-yl)amino)-2-cyclopropyl-3,3-difluoro-7-methyl-1,2,3,4-tetrahydro-[1,4]oxazepino[2,3-c]quinolin-6(7H)-one [Example 14b]”, with 7.33.
